Source: paper PMC9996372, “Aim18p and Aim46p are chalcone isomerase domain–containing mitochondrial hemoproteins in Saccharomyces cerevisiae” (The Journal of Biological Chemistry, 2023)

Key:
AtFAP1-Nd45-WT = molecular target: T1, AtFAP1-Nd45-WT (Arabidopsis thaliana, UniProt Q9M1X2); settings: 5 μM protein, 50 μM fatty acid, 100 mM Hepes pH 7.5, 150 mM NaCl, 1 h at RT; versus DMSO
T1 construct: gene FAP1

AtCHI1-FL-WT = molecular target: T2, AtCHI1-FL-WT (Arabidopsis thaliana, UniProt P41088); test: chalcone isomerase assay, depletion of A381; format: biochemical; settings: 10 nM protein, 200 μM naringenin chalcone, 50 mM Hepes pH 7.5, 150 mM NaCl, 5% EtOH; product naringenin
T2 construct: gene CHI1; full-length; N-terminal 8X-His tag
T2 sequence (P41088 1-246): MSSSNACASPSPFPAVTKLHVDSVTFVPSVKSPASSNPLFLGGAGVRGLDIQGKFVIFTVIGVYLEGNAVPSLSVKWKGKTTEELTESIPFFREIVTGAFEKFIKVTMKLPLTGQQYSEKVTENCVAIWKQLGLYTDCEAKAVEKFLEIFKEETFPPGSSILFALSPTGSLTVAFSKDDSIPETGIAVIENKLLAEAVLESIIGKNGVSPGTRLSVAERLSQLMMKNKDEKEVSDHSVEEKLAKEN

T1 sequence (Q9M1X2 46-279): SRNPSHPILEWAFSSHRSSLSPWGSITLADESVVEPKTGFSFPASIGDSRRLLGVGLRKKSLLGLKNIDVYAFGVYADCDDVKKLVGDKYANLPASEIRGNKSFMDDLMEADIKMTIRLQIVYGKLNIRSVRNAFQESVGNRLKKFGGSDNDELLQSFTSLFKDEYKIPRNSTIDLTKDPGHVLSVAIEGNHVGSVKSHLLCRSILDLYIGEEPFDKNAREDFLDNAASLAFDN

| SMILES | ΔTm (AtFAP1-Nd45-WT) | chalcone isomerase assay, depletion of A381 (AtCHI1-FL-WT) |
| --- | --- | --- |
| CC/C=C\C/C=C\C/C=C\CCCCCCCC(=O)O [Linolenic acid] | AtFAP1-Nd45-WT was the only protein stabilized by the addition of linolenic acid |  |
| O=C(/C=C/c1ccc(O)cc1)c1c(O)cc(O)cc1O [naringenin chalcone] |  | Only AtCHI-WT rapidly converted naringenin chalcone to naringenin |
